Patent US12685715B2, “Compositions, methods of treatment, and containers including compositions” (University of Florida Research Foundation, Inc., priority 2018, dated 2026)

What was measured:
[1] = Cysteamine degradation in anti-oxidant formulations, vials exposed to atmospheric oxygen (UV-vis); format: physicochemical
Procedure: All formulations containing hydrophilic components (SUR, CAT) were prepared by stirring at room temperature till dissolution. All formulations were tested for pH and adjusted to 7.4 if required. For each formulation, 20 mL of liquid was placed into a 22 mL, flat bottom, 28 mm diameter, glass vial (Fisher Scientific). Each formulation was purged with nitrogen gas for two hours to minimize dissolved oxygen. After purging, 2.0±0.1 mg cysteamine was added to each formulation to achieve a concentration of 0.1 mg mL^−1 which is about one-fourth of the concentration in the commercial formulation. We are interested in the relative changes in degradation rates by addition of anti-oxidants so reducing concentration will not be a significant factor. […] The vials were then left exposed to atmospheric oxygen to ensure that the degradation rates were not limited by availability of oxygen. The formulations were periodically sampled for measurement of UV spectra in 190-350 nm range (Thermo Scientific™ GENESYS™ 10S UV-Vis Spectrophotometer). The spectra of cysteamine and the oxidation product cystamine are sufficiently different so the combined spectra obtained from the samples can be separated via a least square fit to yield the concentrations of both components. After analyzing, the solution was returned to the vial to conserve total volume. […]

[2] = Cysteamine degradation in eye drop bottles with OMAC film barrier / combined approach, drops withdrawn periodically; format: physicochemical; settings: calculated, 30 μL drop
Procedure: To explore the effect of any alterations in packaging, it was considered more realistic to use a commercial eye drop bottle. […] As these systems were in a nearly closed system, evaporation was not a concern, so they could be run for longer durations of time compared to the anti-oxidant experiments performed open to atmosphere. At certain time intervals, the screw cap was removed, and the bottle was squeezed to eject one drop. The mass of the drop was measured, and the drop was diluted 100 fold by PBS. This diluted solution was then measured by UV-vis spectrophotometry to determine the degradation of cysteamine.
Catalase (0.15%) was added to the cysteamine solution, which was nitrogen purged for an additional half hour. The solution was then placed in the bottle and topped with a 1.0 cm layer of 50% (v/v) soybean oil and 50% vitamin E. The bottle was then capped and tested for degradation of cysteamine while periodically withdrawing eye drop samples, as described in section 2.2.2.2.

degradation rate ([1]; 0.1 mg mL^−1 of cysteamine): 126 ± 4 µg/h
degradation rate ([1]; 4.4 mg mL^−1 of cysteamine): 132 ± 15 µg/h
degradation rate from air entering the bottle after each drop [2]: roughly 10 μg/hr
SMILES: NCCS [cysteamine, Cysteamine]
